The values below come from PMC10991534, “The redox-sensitive R-loop of the carbon control protein SbtB contributes to the regulation of the cyanobacterial CCM” (Scientific Reports, 2024).

Common to all, as to assay: ITC, one set of sites model
For experiment [1], the target named is T1, SbtB (Synechocystis sp. PCC 6803, UniProt P73954).
T1 construct: gene slr1513; R-loop Cys105-Cys110
As to conditions: WT oxidized R-loop; re-calculated here from the group's earlier ITC data (ref 11) with single binding model; cited from earlier work.

A further experiment deals with T2, SbtB-Δ104 (Synechocystis sp. PCC 6803, UniProt P73954).
T2 construct: gene slr1513; C-terminal R-loop truncated, StrepII-tagged, recombinant, trimer
T2 sequence (P73954 1-104, stated change not applied): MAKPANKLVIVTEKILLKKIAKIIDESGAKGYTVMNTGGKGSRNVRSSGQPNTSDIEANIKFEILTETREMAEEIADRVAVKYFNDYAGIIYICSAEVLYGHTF
It counts as binding.

In experiment [2] the target is T3, SbtB (Synechocystis sp. PCC 6803, UniProt P73954, C105A/C110A).
T3 construct: gene slr1513; R-loop Cys105-Cys110
T3 sequence (P73954 whole entry C105A/C110A): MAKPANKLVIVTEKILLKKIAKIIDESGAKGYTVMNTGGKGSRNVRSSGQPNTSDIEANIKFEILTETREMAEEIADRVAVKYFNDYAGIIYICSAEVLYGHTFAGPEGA
Type of experiment: binding.

The target in experiment [3] is T4, SbtB (Synechocystis sp. PCC 6803, UniProt P73954, C105S/C110S).
T4 construct: gene slr1513; R-loop Cys105-Cys110
T4 sequence (P73954 whole entry C105S/C110S): as the sequence (P73954 whole entry C105A/C110A) above, with A105S, A110S counted along it
Type of experiment: binding.

In experiment [4] the target is T5, SbtB (Synechocystis sp. PCC 6803, UniProt P73954, C110S).
T5 construct: gene slr1513; R-loop Cys105-Cys110
T5 sequence (P73954 whole entry C110S): as the sequence (P73954 whole entry C105A/C110A) above, with A105C, A110S counted along it
It counts as binding.

The target in experiment [5] is T6, SbtB (Synechocystis sp. PCC 6803, UniProt P73954, C105S).
T6 construct: gene slr1513; R-loop Cys105-Cys110
T6 sequence (P73954 whole entry C105S): as the sequence (P73954 whole entry C105A/C110A) above, with A105S, A110C counted along it
Type of experiment: binding.

For a further experiment, the target named is T7, SbtB-Δ109 (Synechocystis sp. PCC 6803, UniProt P73954).
T7 construct: gene slr1513; last residue Cys110 deleted, StrepII-tagged, recombinant, trimer
T7 sequence (P73954 1-109, stated change not applied): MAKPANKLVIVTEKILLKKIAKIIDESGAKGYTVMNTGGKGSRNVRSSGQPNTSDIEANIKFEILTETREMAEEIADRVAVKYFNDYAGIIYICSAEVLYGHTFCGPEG
It counts as binding.

T1 sequence (P73954 whole entry): as the sequence (P73954 whole entry C105A/C110A) above, with A105C, A110C counted along it

One may read the Kd as the free concentration of one partner at which half of the binding sites on the other are occupied at equilibrium, for simple one-to-one binding. For the compound `Nc1ncnc2c1ncn2[C@@H]1O[C@H](COP(=O)(O)O)[C@@H](O)[C@H]1O` [AMP], the Kd at SbtB [1] was 87.4 ± 3.7 µM; at SbtB-Δ104, 78.2 ± 6 µM.

As for `Nc1ncnc2c1ncn2[C@@H]1O[C@H](COP(=O)(O)OP(=O)(O)O)[C@@H](O)[C@H]1O` [ADP], the values for the dissociation constant Kd on SbtB [1] and on SbtB-Δ104 were 55.8 ± 7.7 µM and 79.2 ± 55.1 µM, respectively.

Regarding `Nc1ncnc2c1ncn2[C@@H]1O[C@H](COP(=O)(O)OP(=O)(O)OP(=O)(O)O)[C@@H](O)[C@H]1O` [ATP], the dissociation constant (Kd) was 29.8 ± 14.1 µM at SbtB [2]; 47.6 ± 21.3 µM at SbtB [3]; 60.1 ± 6.7 µM at SbtB [4]; 40.5 ± 75.9 µM at SbtB [5]; 62.5 ± 16.6 µM at SbtB [1]; 35 ± 7.1 µM at SbtB-Δ104. This compound also gave a Kd on SbtB-Δ109 of 32.5 ± 17.9 µM.
